The source of these data is PMC3761409 (Journal of molecular recognition : JMR, 2013).

No end group written: not given here.

In experiment [1] the target is T1, Human Bcl2 (residues 1-205) (Homo sapiens, UniProt P10415). As to the kind of experiment: Isothermal titration calorimetry. The experiment is classed as binding. To be noted: for Kd: SD. For orientation: Isothermal titration calorimetry measures the heat released or taken up as one component is titrated into another.
Experiment [2] addresses T1, Human Bcl2 (residues 1-205). The experiment in a line: ITC: effect of NaCl concentration on binding. To be noted: Sodium phosphate buffer, NaCl 0-500mM, 25°C, pH 7.
Experiment [3] addresses Bcl2 (Homo sapiens, UniProt P10415). As to the kind of experiment: In vitro binding of full-length Bad to Bcl2. To be noted: unpublished observations.
Experiment [4] deals with BclXL (Homo sapiens, UniProt Q07817). As to the kind of experiment: In vitro binding of full-length Bad to BclXL. To be noted: unpublished observations.
Chain of BclXL (Q07817 whole entry, species assumed): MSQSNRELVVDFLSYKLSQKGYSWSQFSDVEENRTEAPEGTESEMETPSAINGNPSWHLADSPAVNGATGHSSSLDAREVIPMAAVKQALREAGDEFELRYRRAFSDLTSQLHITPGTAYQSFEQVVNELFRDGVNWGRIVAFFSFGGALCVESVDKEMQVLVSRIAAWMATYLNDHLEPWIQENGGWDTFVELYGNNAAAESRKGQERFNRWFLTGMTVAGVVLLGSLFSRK

T1 sequence (P10415 1-205): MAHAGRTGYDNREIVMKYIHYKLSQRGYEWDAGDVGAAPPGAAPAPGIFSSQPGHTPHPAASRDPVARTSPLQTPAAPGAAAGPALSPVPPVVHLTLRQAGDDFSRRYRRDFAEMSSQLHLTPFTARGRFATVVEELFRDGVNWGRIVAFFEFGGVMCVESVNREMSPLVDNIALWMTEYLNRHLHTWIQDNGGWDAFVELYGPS
Chain of Bcl2 (P10415 whole entry): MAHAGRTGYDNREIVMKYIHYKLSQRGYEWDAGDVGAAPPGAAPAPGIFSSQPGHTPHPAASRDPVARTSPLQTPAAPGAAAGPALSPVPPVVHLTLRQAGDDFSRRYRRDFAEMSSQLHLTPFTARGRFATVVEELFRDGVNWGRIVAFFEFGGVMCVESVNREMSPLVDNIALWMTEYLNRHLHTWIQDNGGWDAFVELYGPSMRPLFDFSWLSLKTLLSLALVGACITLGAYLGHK

The Kd is the free concentration of one partner at which half of the binding sites on the other are occupied at equilibrium, for simple one-to-one binding. Read a low Kd as tighter binding. In turn, `CC[C@H](C)[C@H](NC(=O)[C@H](C)NC(=O)[C@H](CC(C)C)NC(=O)[C@H](CCC(N)=O)NC(=O)[C@H](CCCNC(=N)N)NC(=O)CNC(=O)[C@@H](NC(=O)[C@H](CCC(N)=O)NC(=O)CNC(=O)[C@H](CCSC)NC(=O)[C@@H](NC(=O)[C@@H](N)CO)[C@@H](C)O)C(C)C)C(=O)N[C@H](C(=O)NCC(=O)N[C@@H](CC(=O)O)C(=O)N[C@@H](CC(=O)O)C(=O)N[C@H](C(=O)N[C@@H](CC(N)=O)C(=O)N[C@@H](CCCNC(=N)N)C(=O)N[C@@H](CCCNC(=N)N)C(=O)O)[C@@H](C)CC)[C@@H](C)CC` [Bak] came in with a Kd in experiment [1] of 1300 ± 250 nM. The “effect of increasing NaCl concentration on the binding (Kd) to Bcl2” value (from here on “effect of increasing NaCl concentration”) in experiment [2] is “largely independent of salt concentration”. Taken in the same sequence, the figures for `CC(C)C[C@H](NC(=O)[C@H](C)NC(=O)[C@H](CCCCN)NC(=O)[C@H](CC(C)C)NC(=O)[C@H](CCCNC(=N)N)NC(=O)[C@H](C)NC(=O)[C@H](C)NC(=O)[C@@H](NC(=O)[C@H](CC(C)C)NC(=O)[C@H](CCC(N)=O)NC(=O)[C@H](C)NC(=O)[C@H](C)NC(=O)[C@@H](N)CO)[C@@H](C)O)C(=O)NCC(=O)N[C@@H](CC(=O)O)C(=O)N[C@@H](CCC(=O)O)C(=O)N[C@@H](CC(C)C)C(=O)N[C@@H](Cc1c[nH]cn1)C(=O)N[C@@H](CCC(N)=O)C(=O)N[C@@H](CCCNC(=N)N)C(=O)O` [Hrk] were 25000 ± 8800 nM and “enhancement of between two-to-five folds”. The molecule ASTKKLSESLKRIGDELDSN [Bax] had a Kd in experiment [1] of 3100 ± 660 nM. In addition, in experiment [2], the “effect of increasing NaCl concentration” value is “enhancement of between two-to-five folds”. DIIRNIARHLAQVGDSMDRS [Bid] came in with a Kd in experiment [1] of 2100 ± 410 nM. The “effect of increasing NaCl concentration” value in experiment [2] is given as “largely independent of salt concentration”. Taken in the same sequence, the figures for EGSDALALRLACIGDEMDVS [Bik] were 3780 ± 790 nM and “enhancement of between two-to-five folds”. Turning to ELEVECATQLRRFGDKLNFR [Noxa], the “binding to Bcl2 under varied conditions” value in experiment [1] (ITC, temperature, buffer or solution pH varied) is “did not observe the binding”. Consider QAEVQIARKLQCIADQFHRL [Bmf], for which, in experiment [1], binding was put at a Kd of 300 ± 70 nM. In addition, the “effect of increasing NaCl concentration” value in experiment [2] is on record as “little or negligible effect”. In the same order, the values of QWAREIGAQLRRMADDLNAQ [Puma] are 370 ± 70 nM and “little or negligible effect”. In experiment [1], QWAREIGAQLRRMGDDLNAQ [Puma_A+4G] came in with a Kd of 2120 ± 420 nM.

With SAAQLTAARLKALADELHQR [Hrk_G+4A], in experiment [1], the Kd turned out to be 3840 ± 710 nM. This Kd is about 1.8-fold higher than that of the molecule before.

As to WAAQRYGRELRRMSDEFVDS [Bad], binding in experiment [1] was put at a Kd of 4140 ± 800 nM. The “effect of increasing NaCl concentration” value in experiment [2] is on record as “enhancement of between two-to-five folds”.

B1: full-length Bad: full-length Bad protein (Bcl2-associated death promoter) (protein, UniProt Q92934 1-168, looked up)
chain: MFQIPEFEPSEQEDSSSAERGLGPSPAGDGPSGSGKHHRQAPGLLWDASHQQEQPTSSSHHGGAGAVEIRSRHSSYPAGTEDDEGMGEEPSPFRGRSRSAPPNLWAAQRYGRELRRMSDEFVDSFKKGLPRPKSAGTATQMRQSSSWTRVFQSWWDRNLGRGSSAPSQ
modifications: full-length
As to B1, the “affinity of the full-length protein toward Bcl2” value in experiment [3] was “poor affinity”. For the same molecule, in experiment [4], the “affinity of the full-length protein toward BclXL” value is recorded as “poor affinity”.
